The record followed here is patent publication US20180346473A1, “FUSED BICYCLIC COMPOUNDS” (Akarna Therapeutics, Ltd., priority 2017, published 2018).

The target in the experiment is T1, FXR (Homo sapiens, UniProt Q96RI1).
T1 sequence (Q96RI1 1-486): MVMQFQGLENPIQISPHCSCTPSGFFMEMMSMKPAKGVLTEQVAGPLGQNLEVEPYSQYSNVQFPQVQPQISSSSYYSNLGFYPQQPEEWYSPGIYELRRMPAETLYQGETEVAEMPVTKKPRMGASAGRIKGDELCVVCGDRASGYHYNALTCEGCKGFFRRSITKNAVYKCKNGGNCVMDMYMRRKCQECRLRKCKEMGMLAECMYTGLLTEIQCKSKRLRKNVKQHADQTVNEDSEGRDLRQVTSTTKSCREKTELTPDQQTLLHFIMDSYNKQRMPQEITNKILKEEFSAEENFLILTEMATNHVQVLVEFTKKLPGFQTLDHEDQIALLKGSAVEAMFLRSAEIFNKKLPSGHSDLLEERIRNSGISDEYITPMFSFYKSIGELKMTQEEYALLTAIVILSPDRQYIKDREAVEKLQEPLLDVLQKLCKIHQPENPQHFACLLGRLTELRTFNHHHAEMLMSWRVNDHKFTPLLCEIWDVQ
Nature of the experiment: FXR Agonist Assay (Gaussia luciferase reporter in cells). Type of experiment: cell-based. To be noted: 20 hours incubation at 37° C., Gaussia luciferase luminescence, normalized to DMSO control. As for the experimental part: Starting from 3.33 mM of compound in DMSO solution, a 10-point 3-fold serial dilution was made by diluting 5 μL of compound into 10 μL of DMSO. The serially diluted compound was then diluted 1:33 into DMEM. This medium was then diluted ten-fold into the culture medium with the cells (10 μL/well). All concentration points are assayed in duplicate. Plates were incubated at 37° C. for 20 hours. After the incubation, 20 μL of culture medium were removed from each well and mixed with 50 μL of assay solution (Pierce™ Gaussia Luciferase Flash Assay Kit). The luminescence was measured immediately after addition of the Luc substrate with an Envision microplate reader. The raw data was uploaded to CDD and dose-response curves were generated using the Levenberg-Marquardt algorithm integrated into CDD. A negative control DMSO is included on each plate and used to normalize the data with the CDD built-in normalization function.
For orientation: In a reporter assay the amount or activity of a reporter protein is the signal.
For the molecule `CC(C)OC(=O)C1=CN(C(=O)c2ccc(OCCN3CCOCC3)cc2)CC(C)(C)c2c(C(F)(F)F)n[nH]c21` [Compound 2, (E)-isopropyl 4,4-dimethyl-6-(4-(2-morpholinoethoxy)benzoyl)-3-(trifluoromethyl)-1,4,5,6-tetrahydropyrazolo[3,4-d]azepine-8-carboxylate], the EC50 was < 500 nM.

On to `CC(C)OC(=O)C1=CN(C(=O)c2ccc(OCCN3CCOCC3)c(F)c2)CC(C)(C)c2c(C(F)(F)F)n[nH]c21` [Compound 3, (E)-isopropyl 6-(3-fluoro-4-(2-morpholinoethoxy)benzoyl)-4,4-dimethyl-3-(trifluoromethyl)-1,4,5,6-tetrahydropyrazolo[3,4-d]azepine-8-carboxylate], for which the concentration giving a half-maximal response (EC50) is < 500 nM.

In the case of `CC(C)NC(=O)C1=CN(C(=O)c2ccc(F)c(F)c2)CC(C)(C)c2c(C(F)(F)F)n[nH]c21` [Compound 1, (E)-6-(3,4-difluorobenzoyl)-N-isopropyl-4,4-dimethyl-3-(trifluoromethyl)-1,4,5,6-tetrahydropyrazolo[3,4-d]azepine-8-carboxamide], the EC50 was < 500 nM.

As usually defined, the EC50 is the concentration at which the effect is half-maximal. Higher therefore signals a less potent agent.
